Measured values taken from PMC5781229 (Analytical biochemistry, 2017).

Target: TET2 (Homo sapiens, UniProt Q6N021, DEL1481-1843)

- Km: 15.7 µM
Structure (SMILES): O=C(O)CCC(=O)C(=O)O [compound 1, 2KG]
